This is an account of results in publication PMC9574867, “Discovery and Characterization of Synthesized and FDA-Approved Inhibitors of Clostridial and Bacillary Collagenases” (Journal of Medicinal Chemistry, 2022).

Converted amounts (≈) assume the structure as drawn. “Also recorded” adds a separate entry of the source. Like-named read-outs stand apart in the source and are kept apart here.

Data set [1] has as its target HDAC-3 (Homo sapiens, UniProt O15379). Description: Human off-target inhibition, HDAC-3. The format is biochemical. The protocol: (§1) To assess the selectivity of the compounds over human MMPs and on other bacterial collagenases, selected compounds were tested against ColG-CU and ColH-PD from C. histolyticum and ColA-CU from B. cereus strain ATCC14579. In addition, the compounds were tested on catalytic domains of three human MMPs, which are characterized by different depths of the S1′ binding pocket (MMP-1 (shallow), −2 (intermediate), and −3 (deep)). They were also tested against other important human off-targets, which are involved in gene expression and the processing of TNF-α; these include HDAC-3, -8, TACE (ADAM-17),[33],[34] and COX-1.

Data set [2] concerns the target T1, MMP-3 (Homo sapiens, UniProt P08254).
T1 construct: catalytic domains of three human MMPs; purchased Sigma-Aldrich
Description: MMP inhibition assay, MMP-3. The format is biochemical. The protocol:
as §1
(§2) The MMP inhibition assay (Sigma-Aldrich, Saint Louise, MO) was performed as previously reported and in accordance with the manufacturer’s instructions. The fluorescence signals were measured in a CLARIOstar plate reader (BMG LABTECH, Ortenberg, Germany) at a concentration of 100 μM.

For data set [3], the system named is B. cereus AH187. The experiment in a line: B. cereus growth inhibition assay. The format is cell-based. Conditions: Bacillus cereus, read-out: MIC50 (µM) AH187.
Data set [4] concerns the target T2, ColH-PD (Hathewaya histolytica, UniProt Q46085). The experiment in a line: biochemical. The format is biochemical, C. histolyticum. Conditions: for inhibition at 100 µM: read-out: Percent inhibition of ColH-PD.
Data set [5] has as its target TACE (ADAM-17) (Homo sapiens, UniProt P78536). Description: Human off-target inhibition, TACE. The format is biochemical. As to the method: as §1
Data set [6] has as its target T3, ColG-CU (Hathewaya histolytica, UniProt Q9X721). Description: biochemical. Conditions: for inhibition at 100 µM: read-out: Percent inhibition of ColG-CU. The format is biochemical, C. histolyticum.
Data set [7] has as its target T4, ColA-CU (Bacillus cereus, UniProt Q81BJ6). Description: biochemical. The format is biochemical, B. cereus strain ATCC14579. Conditions: for inhibition at 100 µM: read-out: Percent inhibition of ColA-CU.
Data set [8] deals with T5, MMP-1 (Homo sapiens, UniProt P03956).
T5 construct: catalytic domains of three human MMPs; purchased Sigma-Aldrich
T5 sequence (P03956 98-276 limits assumed): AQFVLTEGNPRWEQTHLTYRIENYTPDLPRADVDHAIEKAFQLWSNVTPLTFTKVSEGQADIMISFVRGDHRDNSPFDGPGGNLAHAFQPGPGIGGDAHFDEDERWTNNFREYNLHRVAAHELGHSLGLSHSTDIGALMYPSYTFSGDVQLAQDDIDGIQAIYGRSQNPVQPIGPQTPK
Description: MMP inhibition assay, MMP-1. In kind it is biochemical. As to the method:
as §1, §2

For data set [9], the target named is T6, HDAC-8 (Homo sapiens, UniProt Q9BY41).
T6 sequence (Q9BY41 1-377): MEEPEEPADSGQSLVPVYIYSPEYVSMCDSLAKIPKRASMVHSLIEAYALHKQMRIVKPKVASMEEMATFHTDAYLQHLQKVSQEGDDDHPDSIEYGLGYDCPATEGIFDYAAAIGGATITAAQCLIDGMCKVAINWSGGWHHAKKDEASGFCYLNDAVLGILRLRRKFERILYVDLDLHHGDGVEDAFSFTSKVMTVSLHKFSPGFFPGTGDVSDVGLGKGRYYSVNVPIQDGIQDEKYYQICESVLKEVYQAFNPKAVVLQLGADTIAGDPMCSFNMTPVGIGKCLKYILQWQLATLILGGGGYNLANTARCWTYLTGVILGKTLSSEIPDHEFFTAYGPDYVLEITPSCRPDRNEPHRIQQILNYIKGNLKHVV
The experiment in a line: Human off-target inhibition, HDAC-8. In kind it is biochemical. The protocol:
as §1

Data set [10] relates to B. cereus AH187 infection. In kind it is in vivo, Galleria mellonella.
For data set [11], the target named is T7, MMP-2 (Homo sapiens, UniProt P08253).
T7 construct: catalytic domains of three human MMPs; purchased Sigma-Aldrich
T7 sequence (P08253 110-444 limits assumed): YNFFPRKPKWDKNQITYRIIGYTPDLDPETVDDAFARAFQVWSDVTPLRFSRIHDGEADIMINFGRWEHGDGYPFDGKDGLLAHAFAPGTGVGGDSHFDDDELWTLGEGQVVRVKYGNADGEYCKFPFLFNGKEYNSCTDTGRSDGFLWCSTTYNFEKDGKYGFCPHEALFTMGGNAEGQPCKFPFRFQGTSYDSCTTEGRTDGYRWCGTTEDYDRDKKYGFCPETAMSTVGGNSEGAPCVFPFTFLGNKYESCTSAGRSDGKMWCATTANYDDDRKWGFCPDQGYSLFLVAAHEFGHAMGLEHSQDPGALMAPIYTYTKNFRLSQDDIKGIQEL
Description: MMP inhibition assay, MMP-2. In kind it is biochemical. As to the method:
as §1, §2

Data set [12] deals with T8, ColQ1-CU (Bacillus cereus, UniProt B9J3S4). Description: biochemical. On the set-up: species or system B. cereus strain Q1.
T8 sequence (B9J3S4 94-765 limits assumed): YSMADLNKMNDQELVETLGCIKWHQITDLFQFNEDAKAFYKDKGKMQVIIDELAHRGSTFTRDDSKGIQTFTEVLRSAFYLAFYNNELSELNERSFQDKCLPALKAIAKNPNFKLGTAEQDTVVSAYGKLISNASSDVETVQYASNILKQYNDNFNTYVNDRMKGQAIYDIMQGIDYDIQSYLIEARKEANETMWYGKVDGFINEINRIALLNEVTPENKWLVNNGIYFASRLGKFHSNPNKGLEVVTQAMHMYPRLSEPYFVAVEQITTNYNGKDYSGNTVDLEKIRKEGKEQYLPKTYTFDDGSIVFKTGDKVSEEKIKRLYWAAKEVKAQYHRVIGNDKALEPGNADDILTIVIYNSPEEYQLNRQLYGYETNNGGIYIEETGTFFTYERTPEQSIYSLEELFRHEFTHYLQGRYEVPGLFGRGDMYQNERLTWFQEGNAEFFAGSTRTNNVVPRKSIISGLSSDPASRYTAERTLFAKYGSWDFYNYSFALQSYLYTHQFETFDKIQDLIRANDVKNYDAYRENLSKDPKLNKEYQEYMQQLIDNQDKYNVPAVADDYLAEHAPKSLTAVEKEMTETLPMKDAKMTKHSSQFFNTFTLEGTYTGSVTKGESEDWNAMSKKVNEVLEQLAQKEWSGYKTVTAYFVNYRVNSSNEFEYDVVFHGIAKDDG
In data set [13] the test system is NHDF cells infected with B. cereus. Description: NHDF infection model, cell morphology/attachment and fibrillar collagen (picrosirius red). In kind it is cell-based, human. Conditions: B. cereus infection, 5 h.
The target in data set [14] is ColQ1-FL (Bacillus cereus, UniProt B9J3S4). The format is biochemical. Conditions: 12.5–1.5 μM tested, SDS-PAGE.
Chain of ColQ1-FL (B9J3S4 94-965 limits assumed): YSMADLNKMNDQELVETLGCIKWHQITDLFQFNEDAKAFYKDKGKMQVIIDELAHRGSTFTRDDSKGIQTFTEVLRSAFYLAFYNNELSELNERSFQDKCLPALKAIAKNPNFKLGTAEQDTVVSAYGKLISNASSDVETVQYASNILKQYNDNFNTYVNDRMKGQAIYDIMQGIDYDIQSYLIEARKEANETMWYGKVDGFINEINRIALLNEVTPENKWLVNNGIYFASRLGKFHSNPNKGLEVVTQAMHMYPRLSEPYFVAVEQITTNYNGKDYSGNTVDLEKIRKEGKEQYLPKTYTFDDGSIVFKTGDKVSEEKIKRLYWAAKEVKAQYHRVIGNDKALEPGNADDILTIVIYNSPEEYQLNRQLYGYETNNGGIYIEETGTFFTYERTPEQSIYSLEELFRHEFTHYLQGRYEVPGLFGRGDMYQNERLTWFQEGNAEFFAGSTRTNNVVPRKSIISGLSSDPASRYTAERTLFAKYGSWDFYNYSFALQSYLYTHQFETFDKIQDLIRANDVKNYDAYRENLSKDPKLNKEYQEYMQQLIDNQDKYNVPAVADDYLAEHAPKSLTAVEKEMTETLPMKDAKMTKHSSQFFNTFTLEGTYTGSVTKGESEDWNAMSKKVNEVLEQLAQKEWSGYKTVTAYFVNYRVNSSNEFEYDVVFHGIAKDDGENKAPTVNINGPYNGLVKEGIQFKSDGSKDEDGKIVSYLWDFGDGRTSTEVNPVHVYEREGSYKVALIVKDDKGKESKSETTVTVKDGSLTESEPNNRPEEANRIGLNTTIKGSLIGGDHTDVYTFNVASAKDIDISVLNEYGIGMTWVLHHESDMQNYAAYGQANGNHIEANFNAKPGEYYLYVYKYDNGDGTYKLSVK
Data set [15] deals with B. cereus collagenases released in the NHDF infection model. The format is cell-based, B. cereus AH187.
Data set [16] deals with MDCK II cells infected with B. cereus AH187. In kind it is cell-based, canine.
Data set [17] is described as follows: in vitro. Conditions: dog, MDCK II cells (Madin–Darby canine kidney II).
For data set [18], the target named is T8, ColQ1-CU. The format is biochemical, B. cereus. As to conditions: for Reversibility of inhibition, ColQ1-CU: rapid dilution.
The target in data set [19] is COX-1 (Homo sapiens, UniProt P23219). Description: Human off-target inhibition, COX-1. The format is biochemical. The protocol:
as §1

For data set [20], the target named is T2, ColH-PD. In kind it is biochemical, C. histolyticum.
A short description of data set [21]: in vitro. Conditions: human, HEK293 cells (embryonal kidney).
The target in data set [22] is T4, ColA-CU. In kind it is biochemical, B. cereus. As to conditions: rapid dilution.
The target in data set [23] is T3, ColG-CU. In kind it is biochemical, C. histolyticum. Conditions: rapid dilution.
Data set [24] is described as follows: in vitro. As to conditions: human, NHDF cells (normal human dermal fibroblasts).
Data set [25] can be described thus: in vitro. As to conditions: human, HepG2 cells (hepatocellular carcinoma).
For data set [26], the target named is T8, ColQ1-CU. The format is binding, B. cereus. Conditions: intact protein HPLC-MS, overnight treatment.
Where [27] appears, read: AH187, BHI medium, 37 °C, 48 h, 200–3 μM.

T2 sequence (Q46085 331-721 limits assumed): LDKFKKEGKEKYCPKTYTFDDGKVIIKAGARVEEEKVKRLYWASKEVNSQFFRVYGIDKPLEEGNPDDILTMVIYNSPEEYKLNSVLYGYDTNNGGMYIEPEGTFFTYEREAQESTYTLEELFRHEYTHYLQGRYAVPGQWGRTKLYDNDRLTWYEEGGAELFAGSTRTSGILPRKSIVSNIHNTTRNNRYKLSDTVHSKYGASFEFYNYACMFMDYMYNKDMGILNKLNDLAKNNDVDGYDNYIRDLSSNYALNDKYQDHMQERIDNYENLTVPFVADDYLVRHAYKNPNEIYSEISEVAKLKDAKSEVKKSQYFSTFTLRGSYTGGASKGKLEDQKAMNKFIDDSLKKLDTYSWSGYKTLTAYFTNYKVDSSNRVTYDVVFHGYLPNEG
T4 sequence (Q81BJ6 93-764): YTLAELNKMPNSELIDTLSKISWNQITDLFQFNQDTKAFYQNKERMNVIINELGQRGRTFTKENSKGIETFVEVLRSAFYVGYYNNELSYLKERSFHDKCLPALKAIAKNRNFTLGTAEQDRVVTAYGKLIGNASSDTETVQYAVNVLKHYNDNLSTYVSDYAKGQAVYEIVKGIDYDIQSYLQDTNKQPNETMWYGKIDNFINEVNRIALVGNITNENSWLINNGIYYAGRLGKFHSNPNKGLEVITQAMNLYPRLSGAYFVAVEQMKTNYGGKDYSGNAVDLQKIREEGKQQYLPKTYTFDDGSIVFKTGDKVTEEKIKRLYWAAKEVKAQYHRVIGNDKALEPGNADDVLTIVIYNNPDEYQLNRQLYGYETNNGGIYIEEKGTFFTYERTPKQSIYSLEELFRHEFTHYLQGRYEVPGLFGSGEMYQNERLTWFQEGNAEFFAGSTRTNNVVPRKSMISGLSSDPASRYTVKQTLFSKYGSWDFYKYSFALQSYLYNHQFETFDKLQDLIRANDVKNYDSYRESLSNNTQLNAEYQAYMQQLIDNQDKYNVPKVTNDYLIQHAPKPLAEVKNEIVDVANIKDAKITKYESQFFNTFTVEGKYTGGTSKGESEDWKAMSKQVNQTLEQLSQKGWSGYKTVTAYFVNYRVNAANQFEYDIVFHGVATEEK
T3 sequence (Q9X721 111-786): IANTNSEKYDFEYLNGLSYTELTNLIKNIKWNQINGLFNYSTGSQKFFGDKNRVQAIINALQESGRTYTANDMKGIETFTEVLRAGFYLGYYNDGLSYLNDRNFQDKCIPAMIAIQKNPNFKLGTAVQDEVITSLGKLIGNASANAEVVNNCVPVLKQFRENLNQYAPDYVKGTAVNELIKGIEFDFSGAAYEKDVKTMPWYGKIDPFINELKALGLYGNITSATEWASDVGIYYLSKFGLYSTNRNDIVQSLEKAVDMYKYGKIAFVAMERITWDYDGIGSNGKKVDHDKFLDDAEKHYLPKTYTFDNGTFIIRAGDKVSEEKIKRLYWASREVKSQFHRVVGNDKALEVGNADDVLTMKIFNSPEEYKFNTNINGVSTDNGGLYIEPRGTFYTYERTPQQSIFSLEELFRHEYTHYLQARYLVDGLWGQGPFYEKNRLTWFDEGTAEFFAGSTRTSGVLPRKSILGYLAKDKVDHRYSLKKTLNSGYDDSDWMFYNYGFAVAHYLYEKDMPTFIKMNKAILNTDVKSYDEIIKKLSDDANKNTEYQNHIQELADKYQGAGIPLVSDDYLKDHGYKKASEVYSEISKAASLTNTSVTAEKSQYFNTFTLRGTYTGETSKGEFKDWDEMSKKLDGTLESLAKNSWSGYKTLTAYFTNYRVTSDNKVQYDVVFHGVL
Chain of TACE (ADAM-17) (P78536 215-824): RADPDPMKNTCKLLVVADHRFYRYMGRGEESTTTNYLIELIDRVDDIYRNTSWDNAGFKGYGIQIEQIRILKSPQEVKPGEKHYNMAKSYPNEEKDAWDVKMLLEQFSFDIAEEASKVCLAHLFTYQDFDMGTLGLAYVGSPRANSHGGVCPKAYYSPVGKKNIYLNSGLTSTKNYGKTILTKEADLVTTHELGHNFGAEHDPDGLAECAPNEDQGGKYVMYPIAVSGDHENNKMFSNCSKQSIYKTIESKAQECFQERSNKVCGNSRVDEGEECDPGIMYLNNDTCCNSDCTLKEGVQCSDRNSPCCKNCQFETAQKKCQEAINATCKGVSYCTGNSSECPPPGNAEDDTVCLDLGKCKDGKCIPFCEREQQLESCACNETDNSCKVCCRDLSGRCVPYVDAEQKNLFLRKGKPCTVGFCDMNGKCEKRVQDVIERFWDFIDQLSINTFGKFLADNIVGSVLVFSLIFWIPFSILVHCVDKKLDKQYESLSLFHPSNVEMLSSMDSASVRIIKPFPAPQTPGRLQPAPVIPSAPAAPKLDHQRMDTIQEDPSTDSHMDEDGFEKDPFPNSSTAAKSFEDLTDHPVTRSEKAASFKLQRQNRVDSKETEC
Chain of HDAC-3 (O15379 whole entry, the tested form may be a part): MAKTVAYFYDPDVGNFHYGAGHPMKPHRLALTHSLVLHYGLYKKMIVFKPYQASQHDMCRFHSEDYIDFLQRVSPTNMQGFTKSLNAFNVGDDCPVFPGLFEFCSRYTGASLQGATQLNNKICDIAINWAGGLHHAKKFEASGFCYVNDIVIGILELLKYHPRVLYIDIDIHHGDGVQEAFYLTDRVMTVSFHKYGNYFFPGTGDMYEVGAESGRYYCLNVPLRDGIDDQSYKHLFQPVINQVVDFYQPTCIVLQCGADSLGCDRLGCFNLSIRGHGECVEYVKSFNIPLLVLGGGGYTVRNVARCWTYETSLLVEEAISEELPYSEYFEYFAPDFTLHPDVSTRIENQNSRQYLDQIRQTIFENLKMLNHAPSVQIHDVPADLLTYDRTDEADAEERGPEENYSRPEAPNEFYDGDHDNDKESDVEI
Chain of HDAC-3 (Q9Y618 395-489 partner limits assumed): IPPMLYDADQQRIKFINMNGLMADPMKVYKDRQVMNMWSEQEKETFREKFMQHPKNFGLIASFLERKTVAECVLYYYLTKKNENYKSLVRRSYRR
T1 sequence (P08254 100-272 limits assumed): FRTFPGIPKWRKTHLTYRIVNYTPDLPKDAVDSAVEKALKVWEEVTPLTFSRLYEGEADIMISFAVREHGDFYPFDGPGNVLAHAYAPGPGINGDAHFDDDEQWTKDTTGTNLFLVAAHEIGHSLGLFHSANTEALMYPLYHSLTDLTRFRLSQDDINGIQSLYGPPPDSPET

As to `NCCCC(O)(P(=O)([O-])O)P(=O)(O)O.[Na+]` [Alendronate sodium, reference compound], the IC50 in data set [1], in [2], in [5], in data set [8], in data set [9] and in data set [11] was > 100 µM in each case. The MIC50 in data set [3] (AH187, 48 h) was found to be 200 µM. Moreover, the inhibition at 100 µM was determined as 25 ± 5% in data set [4], 28 ± 7% in data set [6], 18 ± 4% in data set [7] and 76 ± 1% in data set [12]. The “Increase in survival of infected larvae” value in data set [10] (in vivo) amounted to 40%. The “Survival of infected larvae vs control without inhibitor” value in data set [10] (in vivo) is “ameliorated the survival of the larvae in a dose-dependent manner”.

In the case of `O=P(O)(O)c1nc2ccc(Br)cc2nc1P(=O)(O)O` [Compound 10, (6-Bromoquinoxaline-2,3-diyl)bis(phosphonic acid)], in data set [3] (setting [27]), the MIC50 was found to be 200 µM (≈ 73.8 µg/mL). For the same compound, the “Effect on cell morphology and ECM collagen content of infected NHDF cells” value in data set [13] is “smaller effect at all concentrations tested (except for 10, which resulted in higher cell viability and attachment at 100 μM)”. Besides, the “Protection of Col I chains from cleavage by ColQ1-FL” value in [14] was “showed inhibition only at 12.5 μM”. Besides, the “Inhibitory effect on gelatinolytic activity of secreted collagenases” value (shortened to “Inhibitory effect”) in data set [15] is on record as “inhibited the collagenase activity toward gelatin only marginally at 100 μM”. Further, in data set [16], the “TEER of infected MDCK II cells” value is given as “failed to sustain the TEER of the infected cells”. Moreover, the IC50 in data set [12] worked out at 2.5 ± 0.2 µM.

In the case of `O=P(O)(O)c1nc2ccc(-c3ccc(Cl)cc3)cc2nc1P(=O)(O)O` [Compound 15, (6-(4-Chlorophenyl)quinoxaline-2,3-diyl)bis(phosphonic acid)], the IC50 is > 200 µM in [17]; > 100 µM in data set [1]; > 100 µM in data set [19]; > 100 µM in [2]; > 100 µM in data set [21]; > 100 µM in data set [5]. Further, the half-maximal inhibitory concentration (IC50) in data set [24] was > 200 µM; in data set [8] it was > 100 µM; in data set [9] it was > 100 µM; in data set [11] it was > 100 µM; in data set [25], > 100 µM; in data set [12], 10.5 µM. Further, the “Residual activity after rapid dilution” value in [18] (30 min preincubation at 10-fold IC50, 100-fold dilution) is given as “less than 9%”. Besides, the “Reversibility of inhibition, ColQ1-CU” value in data set [18] was “irreversible or very slowly dissociating inhibitors”. Besides, in [3] (setting [27]), the MIC50 is 100 µM (≈ 40.1 µg/mL). In addition, in data set [20], the “Reversibility of inhibition, ColH” value is reported as “reversed compared to ColA”. Moreover, the “Concentration showing dose-dependent effects on NHDF morphology, fibrillar ECM collagen content and LDH release” value in data set [13] is ≥ 100 μM. The inhibition at 100 µM in [4] (100 μM) amounted to 97 ± 5%; in [6] (100 μM), 70 ± 8%; in [7] (100 μM), 86 ± 8%. Further, in [14], the “Protection of Col I chains from cleavage by ColQ1-FL” value is “inhibited the collagenase activity at all concentrations tested”. In addition, the “Reversibility of inhibition, ColA-CU” value in data set [22] is “progress curve typical for slowly dissociating inhibitors”. For the same compound, in data set [15], the “Inhibitory effect” value is reported as “clear dose-dependent inhibitory effect on gelatin turnover”. In data set [23], the “Reversibility of inhibition, ColG” value was “rapidly reversible inhibitors”. Besides, the “TEER of infected MDCK II cells” value in [16] is “preserve the TEER value”. In data set [10] (25 μM), the “Effect on survival of infected larvae” value is given as “reduced effect”. Also, in data set [10] (100 μM), the “Increase in survival of infected larvae” value is reported as “about 35%”. In addition, in data set [10] (37 °C, 3 days), the “Survival of infected larvae vs control without inhibitor” value is on record as “ameliorated the survival of the larvae in a dose-dependent manner”.

Take `CC(=O)Nc1ccccc1OCc1cn(CCNC(=O)C(Cc2ccccc2)C(=O)NO)nn1` (centres unmarked) [Compound 33, N-[2-[4-[(2-Acetamidophenoxy)methyl]triazol-1-yl]ethyl]-2-benzyl-3-(hydroxyamino)-3-oxo-propanamide]: the “Reversibility of inhibition, ColQ1-CU” value in data set [18] is “rapidly reversible inhibitors”. In addition, the “Reversibility of inhibition, ColH” value in data set [20] is on record as “rapidly reversible inhibitors”. Moreover, the “Effect on cell morphology and ECM collagen content of infected NHDF cells” value in data set [13] is given as “neither able to rescue cell morphology nor able to maintain the collagen content of the ECM”. For the same compound, the Ki amounted to 1.7 ± 0.2 µM in data set [4], 18.4 ± 0.6 µM in [6], 4.7 ± 0.3 µM in [7] and 0.82 ± 0.07 µM in data set [12]. Moreover, the “Reversibility of inhibition, ColA-CU” value in data set [22] is listed as “rapidly reversible inhibitors”. Moreover, the “Inhibitory effect” value in data set [15] was “no inhibitory effect on the collagenase in the zymography at all tested concentrations; also recorded: no inhibition of the collagenase in the gelatin zymography was detected”. For the same compound, the “Reversibility of inhibition, ColG” value in data set [23] is “rapidly reversible inhibitors”. The IC50 in data set [12] stood at 1.6 ± 0.1 µM.

For the compound `CNC(=O)[C@H](Cc1c[nH]c2ccccc12)NC(=O)[C@@H](CC(=O)NO)CC(C)C` [Ilomastat, reference compound], the “Covalent modification of ColQ1-CU” value in data set [26] is recorded as “No molecular masses displayed a mass shift indicating a covalently bound inhibitor”.

Usually IC50 stands for the concentration at which inhibition is half-maximal. The low end stands for greater potency, the high end for weaker potency. As a reminder, the MIC50 is the lowest concentration that inhibits either 50% of growth or 50% of the strains tested, depending on the study. One may read the inhibition as how much of the control response was suppressed. The term Ki denotes a measure of affinity in units of concentration, obtained from inhibition or displacement. A lower Ki goes with tighter binding.
